US6942874B2, “Nucleotide compounds that block the bitter taste of oral compositions” (Linguagen Corp., priority 2001, dated 2005)

Test system: transducin
Assay: [35S] GTPγS binding assay: transducin activation by bitter-stimulated taste membranes
Type: biochemical, bovine
Source text: Since G proteins have an intrinsic GTPase activity, which terminates the activation cycle, a radioactive nonhydrolyzable analogue of GTR such as [^35S] GTPγS or [^3H] GppNHp must be used. To test for the inhibitory activity of nucleotide compounds, several modifications of the standard [^35S] GTPγS binding assay were made to efficiently measure activation by bitter responsive receptors that couple to gustducin or transducin ([…] et al., in preparation). To maximize the bitter dependent change in radiolabel uptake GDP:GTPγS ratios, buffer composition, and specific activity of the [^35S] GTPγS were adjusted. […] Radionucleotide bound to transducin can be measured by filter binding followed by washing to remove unbound label (Asano et al., 1984 Biochemistry 23:5460-5467). The final concentrations in the [^35S] GTPγS binding assay mix are 10 mM HEPES pH 7.5, 5 mM MgCl2, 50 mM NaCl, 1 mM dithiolthreitol, 10 μM GDP, 1 μM [^35S] GTPγS (0.1 μCi/sample), 0.5 μg/0.05 ml transducin heterotrimer. A 2× stock of the above mixture is added to the bitter compound. Reactions are started by addition of 5 μg/0.05 ml bovine circumvallate membranes and the sample volume is adjusted to […] with water. Samples are incubated at room temperature (25±2° C. for 2 hours). Long incubation times are necessary due to the low density of receptors in the membranes. Similar results are obtained with high dilutions of rhodopsin. Samples are then filtered through BA-85 nitrocellulose filters and washed 3 times with 3 ml of 50 mM Tris-HCl pH 7.5, 4 mM MgCl2, and 0.1 M NaCl. Filters are dried, placed in scintillation fluid and the radioactivity is determined by scintillation counting. Experiments are performed in triplicate with several concentrations of the tastant of interest. Controls include: (i) a rhodopsin positive control, (ii) a no tastant negative control and (iii) a no membrane control +/-tastants.

CC[N+](CC)(CC(=O)Nc1c(C)cccc1C)Cc1ccccc1 [denatonium]
[35S] GTPγS radiolabel binding to transducin (10 mM, with circumvallate membranes, vs membranes alone, Student's t-test, FIG. 1A): increased radiolabel binding | activation of transducin relative to maximal rhodopsin stimulated [35S] GTPγS binding (denatonium 10 mM, with bovine circumvallate membranes, FIG. 1A): ~40% | concentration dependence of transducin activation (in the presence of circumvallate membranes, FIG. 1B): concentration dependent activation of transducin
